Source: patent US10517889B2, “Modulators of SMAD7 expression” (Ionis Pharmaceuticals, Inc., priority 2017, dated 2019)
Several values for one entry are separate records, joined by “and”; a condition that tells them apart may be missing. Equal entries are not always repeated. Strand notation (5' to 3'): a small letter for the sugar, then the base; units joined by * are phosphorothioate-linked, units joined directly phosphodiester-linked; [ ] holds rarer units or linkages, { } end groups; capitals alone tell only the bases. k = constrained ethyl (cEt); [5mC] = 5-methylcytosine; d = 2'-deoxy (DNA)

How the values were obtained:
human SMAD7 mRNA [1] = assay: Antisense inhibition of human SMAD7 mRNA expression in Hep3B cells by 3-10-3 cEt gapmers, 10,000 nM, electroporation (Example 2); type: cell-based; conditions: approximately 24 hours
Procedure, shortened: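 Hep3B cells (20,000/well) were electroporated with 10,000 nM 3-10-3 cEt gapmer (16-mer, phosphorothioate, 5-methylcytosines) and harvested after about 24 h. SMAD7 mRNA quantified by RT-qPCR with primer probe set RTS5062, normalized to total RNA by RiboGreen; percent inhibition relative to untreated cells.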

human SMAD7 mRNA [2] = assay: Dose-dependent inhibition of human SMAD7 mRNA expression in Hep3B cells (Example 3, Study 1 and 2); type: cell-based; conditions: electroporation; for % inhibition of SMAD7 mRNA expression: approximately 16 hours; for IC50: Study 2 (740-20000 nM)
Procedure, shortened: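 Hep3B cells, 20,000 per well, electroporated with antisense oligonucleotide at 0.31, 1.25, 5.00 or 20.00 μM (first series) or 0.74, 2.22, 6.67 or 20.00 μM (second series). After ~16 h, SMAD7 mRNA measured by RT-qPCR (RTS5062), normalised to RIBOGREEN total RNA. Percent inhibition vs untreated cells; IC50 derived.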

[3] = SMAD7 mRNA, Hep3B cells, 10,000 nM antisense oligonucleotide, electroporation, primer probe set RTS5062, relative to untreated control cells
[4] = 740 nM, Study 2, relative to untreated control cells
[5] = Hep3B cells, electroporation with 10,000 nM antisense oligonucleotide, RTS5062, percent inhibition of SMAD7 mRNA relative to untreated control cells
[6] = Hep3B cells, electroporation with 10,000 nM antisense oligonucleotide, primer probe set RTS5062, relative to untreated control cells
[7] = Hep3B cells, electroporation, 10,000 nM antisense oligonucleotide, RTS5062, relative to untreated control cells
[8] = Hep3B cells, electroporation with 10,000 nM antisense oligonucleotide, SMAD7 mRNA by RT-PCR (RTS5062), relative to untreated control cells

Substance	% Inhibition (human SMAD7 mRNA [1]; [3]) [%]	% inhibition of SMAD7 mRNA expression (human SMAD7 mRNA [2]; [4]) [%]	% inhibition of SMAD7 mRNA expression (human SMAD7 mRNA [2]; 2220 nM, Study 2)	% inhibition of SMAD7 mRNA expression (human SMAD7 mRNA [2]; 6670.0 nM, Study 2)	% inhibition of SMAD7 mRNA expression (human SMAD7 mRNA [2]; 20000.0 nM, Study 2)	IC50 (human SMAD7 mRNA [2]) [µM]	% Inhibition (human SMAD7 mRNA [1]; [5]) [%]	% inhibition of SMAD7 mRNA expression (human SMAD7 mRNA [1]; [6]) [%]	% inhibition of SMAD7 mRNA expression (human SMAD7 mRNA [1]; [7]) [%]	% Inhibition (human SMAD7 mRNA [1]; [8]) [%]	% Inhibition (human SMAD7 mRNA [1]; Hep3B cells, 10,000 nM antisense oligonucleotide, electroporation, RT-PCR primer probe set RTS5062, relative to untreated control cells) [%]	% Inhibition (human SMAD7 mRNA [1]; [6]) [%]
790736 (kT*k[5mC]*kA*dA*dA*d[5mC]*dT*dT*dT*dG*dA*dA*dG*k[5mC]*k[5mC]*kT; antisense) [compound 790736]	60	32	56%	68%	74%	> 20	–	–	–	–	–	–
799631 (k[5mC]*k[5mC]*kA*dA*dA*dT*d[5mC]*dA*d[5mC]*dA*dA*dA*dG*k[5mC]*kA*kG; antisense) [compound 799631]	–	0	25%	49%	88%	3	82	–	–	–	–	–
798987 (antisense kA*kA*kT*dG*dA*dT*dG*dA*d[5mC]*d[5mC]*dG*d[5mC]*d[5mC]*k[5mC]*k[5mC]*k[5mC]) [compound 798987]	–	0	0%	8%	47%	4	–	84	–	–	–	–
799596 (kA*k[5mC]*kT*d[5mC]*dT*dG*dA*dA*d[5mC]*dG*dG*dA*dA*kA*kG*kA; antisense) [compound 799596]	–	14	35%	66%	83%	5	–	–	49	–	–	–
799753 (antisense k[5mC]*kG*kT*dG*dA*dG*dT*dA*dA*dA*dT*dT*d[5mC]*kT*kT*kA) [compound 799753]	–	0	33%	32%	66%	4	–	–	69	–	–	–
830122 (kG*kA*kG*dA*dA*dT*d[5mC]*dA*dA*dG*d[5mC]*d[5mC]*d[5mC]*kT*kG*kG; antisense) [compound 830122]	–	28	54%	66%	74%	3	–	–	–	57	–	–
830128 (antisense kA*k[5mC]*k[5mC]*dT*d[5mC]*d[5mC]*dG*dA*dG*dG*d[5mC]*dA*d[5mC]*k[5mC]*kA*k[5mC]) [compound 830128]	–	20	55%	74%	85%	3	–	–	–	87	–	–
830207 (kA*kG*kG*dT*dG*dA*d[5mC]*dT*d[5mC]*dA*dT*d[5mC]*dA*kG*kG*k[5mC]; antisense) [compound 830207]	–	49	74%	85%	93%	1	–	–	–	80	–	–
799396 (antisense kT*kG*kT*dT*dA*d[5mC]*dA*dA*dA*dT*dA*d[5mC]*dA*kG*kA*kG) [compound 799396]	66	–	52% and 38%	72% and 70%	78% and 85%	–	–	–	–	69	–	–
799743 (antisense k[5mC]*kT*kG*dG*dA*dG*dT*dT*dA*dT*dT*d[5mC]*dT*k[5mC]*kA*kA) [compound 799743]	–	0	43%	44%	64%	5	51	–	–	–	–	–
772578 (kG*kG*kT*dA*dT*d[5mC]*dT*dG*dG*dA*dG*dT*dA*kA*kG*kG; antisense) [compound 772578]	63	54	44%	70%	86%	1	–	–	–	–	–	–
799496 (antisense kG*kG*kG*dT*dG*dA*dG*dG*dT*dG*dG*d[5mC]*dT*kG*k[5mC]*kG) [compound 799496]	–	3	12%	34%	69%	3	–	72	–	–	–	–
799708 (antisense k[5mC]*kA*kA*dA*d[5mC]*dT*dT*dG*dT*dG*dG*dT*dA*kA*kA*kA) [compound 799708]	–	15	35%	52%	79%	11	60	–	–	–	–	–
799366 (antisense kT*k[5mC]*kT*d[5mC]*d[5mC]*dG*dA*dG*dT*dT*dA*dT*d[5mC]*k[5mC]*k[5mC]*k[5mC]) [compound 799366]	–	18	39%	64%	76%	8	–	70	–	–	–	–
798687 (antisense kG*kG*k[5mC]*dG*dA*dG*dG*dA*dG*dG*d[5mC]*dG*dA*kG*kG*kA) [compound 798687]	–	27	42%	60%	61%	7	–	64	–	–	–	–
830131 (antisense k[5mC]*k[5mC]*k[5mC]*dA*d[5mC]*d[5mC]*dT*d[5mC]*d[5mC]*dG*dA*dG*dG*k[5mC]*kA*k[5mC]) [compound 830131]	–	34	48%	51%	61%	5	–	–	–	68	–	–
799565 (kA*kG*kT*dA*dA*dA*d[5mC]*dA*dA*dT*dA*d[5mC]*d[5mC]*k[5mC]*kT*k[5mC]; antisense) [compound 799565]	–	23	49%	67%	86%	11	79	–	–	–	–	–
799854 (kG*k[5mC]*k[5mC]*dA*dA*dG*dT*dG*dT*d[5mC]*d[5mC]*dA*dT*k[5mC]*kA*kA; antisense) [compound 799854]	–	21	56%	80%	79%	5	–	–	–	–	45	–
799364 (kT*k[5mC]*k[5mC]*dG*dA*dG*dT*dT*dA*dT*d[5mC]*d[5mC]*d[5mC]*k[5mC]*kA*kT; antisense) [compound 799364]	–	39	54%	67%	88%	3	–	73	–	–	–	–
799159 (antisense kG*kT*kG*dT*dA*dT*dG*dA*dG*dT*dT*dG*dT*kA*kG*kA) [compound 799159]	–	43	55%	78%	90%	19	–	–	–	–	–	56
799410 (antisense kT*k[5mC]*kT*dG*dT*dT*dT*dA*d[5mC]*dA*d[5mC]*dA*d[5mC]*kA*kT*kT) [compound 799410]	–	26	42%	64%	74%	2	–	–	–	79	–	–
830138 (antisense kG*kG*kA*dG*dT*dT*dG*d[5mC]*dA*dT*dG*d[5mC]*d[5mC]*kT*kT*kT) [compound 830138]	–	0	40%	61%	87%	5	–	–	–	71	–	–
799791 (kG*kG*kG*dA*dG*dA*d[5mC]*d[5mC]*dT*dA*d[5mC]*d[5mC]*dT*k[5mC]*kT*kG; antisense) [compound 799791]	–	11	4%	29%	60%	6	–	–	56	–	–	–
